Several values for one entry are separate records, joined by “and”; a condition that tells them apart may be missing. Equal entries are not always repeated.
System: Apoprotein E deficient mice
Assay: Plasma lipid analysis using an autoanalyzer (TC, Trigs, PL, FC, CE by calculation)
Type: in vivo
Set-up: Plasma Trigs (triglycerides) / Trigs (plasma triglycerides): unit not given beside the values; Plasma CE (cholesterol ester, by calculation) / Plasma PL (phospholipids): unit not given here
Source text: Apoprotein E deficient mice (Jackson Laboratories, 600 Main Street, Bar Harbor, Me.) were used in this study. The mice were male, 7-8 weeks of age, and between 18-20 g in weight. An initial total cholesterol measurement was made on 30 mice, and the mice were grouped into two groups of 15 to match the total cholesterol measurements. Both groups were fed a “western diet” (40 kcal % butterfat, 0.15% [wt/wt] cholesterol, Harlan Teklad diet TD-88137). Starting at t=0, the control group of 15 mice received vehicle only (phosphate buffered saline at pH 7.4), while the test group of 15 mice received aromatic-cationic peptide reconstituted in phosphate buffered saline. Body weights of the mice were recorded weekly, and mortality checks were performed daily.
The aromatic-cationic peptide D-Arg-2′6′-Dmt-Lys-Phe-NH2 (sterile lyophilized powder, reconstituted in phosphate buffered saline) was tested. For the 12-week study, test mice received a single, daily dose of the peptide, subcutaneously at 1 mg/kg. Control mice received a single daily dose of vehicle.
Blood was collected every four weeks (orbital plexis) under isoflurane anesthesia (3%) and blood lipids were determined. Plasma lipid analysis was conducted for both groups at t=0, 4, 6, 8, and 12 weeks. Plasma lipid analysis using an autoanalyzer included total cholesterol (TC), triglycerides (Trigs), phospholipids (PL), free cholesterol (FC), and cholesterol ester (CE, by calculation). Gel electrophoresis was used to measure levels of high-density lipoprotein cholesterol (HDL-C), low-density lipoprotein cholesterol (LDL-C), and very low-density lipoprotein cholesterol (VLDL-C).

[1] = Week 0 (start of treatment, baseline), individual mouse of peptide group (sample 16-30)
[2] = Week 4, individual test mice (sample # 16-30), listed as aromatic-cationic peptide
[3] = Week 8, individual test mice (sample # 16-30), listed as aromatic-cationic peptide
[4] = Week 12, AVE of test mice 16-30
[5] = Week 12, individual test mice (sample # 16-30), listed as aromatic-cationic peptide
[6] = treated versus vehicle at 4, 8 and 12 week time points

Substance: D-Arg-2′6′-Dmt-Lys-Phe-NH2
- Plasma FC (free cholesterol), AVE (Week 0 (baseline), group mean of 15 test mice, vehicle group 136): 142
- Plasma Trigs (triglycerides), AVE (Week 0 (baseline), group mean of 15 test mice, vehicle group 141): 140
- Plasma CE (cholesterol ester, by calculation), AVE (Week 0 (baseline), group mean of 15 test mice, vehicle group 275): 280
- Plasma PL (phospholipids), AVE (Week 0 (baseline), group mean of 15 test mice, vehicle group 297): 309
- Plasma TC (total cholesterol), AVE (Week 0 (baseline), group mean of 15 test mice, vehicle group 411): 422
- Plasma CE (cholesterol ester, by calculation) [1]: 183 and 197 and 242 and 192 and 207 and 204 and 240 and 366 and 196 and 270 and 297 and 382 and 306 and 331 and 588
- Plasma FC (free cholesterol) [1]: 119 and 121 and 134 (2×) and 110 and 116 and 131 and 129 and 184 and 113 and 139 and 170 and 151 and 159 and 220
- Plasma PL (phospholipids) [1]: 267 (3×) and 308 and 255 and 306 and 298 and 369 and 238 and 320 and 313 and 332 and 343 and 338 and 413
- Plasma TC (total cholesterol) [1]: 302 (2×) and 318 and 376 and 323 and 335 and 369 and 550 and 309 and 409 and 431 and 552 and 457 and 490 and 808
- Plasma Trigs (triglycerides) [1]: 75 and 88 (3×) and 117 and 96 and 71 and 138 and 167 and 136 and 151 and 191 and 188 and 154 and 353
- CE (plasma cholesterol ester) (Week 4, AVE of test mice 16-30): 610
- FC (plasma free cholesterol) (Week 4, AVE of test mice 16-30): 387
- PL (plasma phospholipid) (Week 4, AVE of test mice 16-30): 514
- TC (plasma total cholesterol) (Week 4, AVE of test mice 16-30): 997
- Trigs (plasma triglycerides) (Week 4, AVE of test mice 16-30): 58
- CE (plasma cholesterol ester) [2]: 491 and 580 and 622 and 731 and 626 and 417 and 574 and 660 and 515 and 536 and 630 and 761 and 581 and 732 and 701
- FC (plasma free cholesterol) [2]: 308 and 344 and 354 (2×) and 408 and 412 and 256 and 366 and 386 and 320 and 286 and 396 and 462 and 516 and 636
- PL (plasma phospholipid) [2]: 422 and 482 and 452 and 560 and 526 and 320 and 506 and 556 and 446 and 416 and 516 and 580 and 510 and 666 and 750
- TC (plasma total cholesterol) [2]: 799 and 924 and 976 and 1139 and 1038 and 673 and 940 and 1046 and 835 and 822 and 1026 and 1223 and 935 and 1248 and 1337
- Trigs (plasma triglycerides) [2]: 18 (2×) and 39 and 28 and 85 and 59 (2×) and 46 and 108 and 33 and 44 (2×) and 67 and 80 and 144
- CE (plasma cholesterol ester) (Week 8, AVE of test mice 16-30): 932
- FC (plasma free cholesterol) (Week 8, AVE of test mice 16-30): 350
- PL (plasma phospholipid) (Week 8, AVE of test mice 16-30): 493
- TC (plasma total cholesterol) (Week 8, AVE of test mice 16-30): 1282
- Trigs (plasma triglycerides) (Week 8, AVE of test mice 16-30): 57
- CE (plasma cholesterol ester) [3]: 940 and 710 and 1119 and 865 and 1153 and 653 and 714 and 1085 and 715 and 670 and 1073 and 1048 and 839 and 1130 and 1267
- FC (plasma free cholesterol) [3]: 322 and 294 (2×) and 386 and 318 and 392 and 290 and 388 and 308 (2×) and 286 and 362 and 366 and 404 and 530
- PL (plasma phospholipid) [3]: 416 and 456 and 474 and 448 and 516 (2×) and 424 and 480 and 488 and 436 and 440 and 556 and 470 and 540 and 728
- TC (plasma total cholesterol) [3]: 1262 and 1004 and 1505 and 1183 and 1545 and 943 and 1008 and 1473 and 1023 and 956 and 1435 and 1414 and 1147 and 1534 and 1797
- Trigs (plasma triglycerides) [3]: 34 (3×) and 31 (2×) and 51 (2×) and 48 and 53 and 43 and 75 and 63 and 39 and 67 and 195
- CE (plasma cholesterol ester) [4]: 681
- FC (plasma free cholesterol) [4]: 322
- PL (plasma phospholipid) [4]: 434
- TC (plasma total cholesterol) [4]: 1003
- Trigs (plasma triglycerides) [4]: 55
- CE (plasma cholesterol ester) [5]: 607 and 335 and 597 and 640 and 1002 and 477 and 445 and 476 and 675 and 687 and 960 and 869 and 339 and 904 and 1201
- FC (plasma free cholesterol) [5]: 291 and 205 and 287 and 296 and 418 and 242 and 229 and 269 and 315 and 312 and 419 and 386 and 219 and 413 and 535
- PL (plasma phospholipid) [5]: 366 and 318 and 320 and 432 and 491 and 321 and 363 and 394 and 374 and 423 and 536 and 521 and 340 and 575 and 741
- TC (plasma total cholesterol) [5]: 898 and 540 and 884 and 937 and 1420 and 719 and 674 and 745 and 990 and 999 and 1379 and 1255 and 558 and 1317 and 1736
- Trigs (plasma triglycerides) [5]: 27 and 49 and 10 and 37 (2×) and 18 and 39 (2×) and 13 and 25 and 74 and 89 and 97 and 112 and 158
- Plasma cholesterol ester, in words [6]: reduces
- Plasma free cholesterol, in words [6]: reduces
- Plasma phospholipid levels, in words [6]: reduces
- Plasma total cholesterol, in words [6]: reduces
- Plasma triglycerides, in words [6]: reduces

Reference: patent US10201585B2, “Methods for treatment of atherosclerosis” (Stealth Peptides International, Inc., priority 2012, dated 2019)
